Values of other authors in US10328067B2, “Pharmaceutical oral dose formulation and composition of matter” (priority 2016, dated 2019).

Conditions: result in words; p-glycoprotein substrate

CC[C@]1(O)C[C@@H]2CN(CCc3c([nH]c4ccccc34)[C@@](C(=O)OC)(c3cc4c(cc3OC)N(C)[C@H]3[C@@](O)(C(=O)OC)[C@H](OC(C)=O)[C@]5(CC)C=CCN6CC[C@]43[C@@H]65)C2)C1 [vinblastine]
intestinal absorption: negligible intestinal absorption
